The results in this text go back to US20240401154A1, “SYNTHESIS AND PREPARATION OF ULTRA-LOW VISCOSITY AND HIGH MAGNETIC SUSCEPTIBILITY MAGNETIC IONIC LIQUIDS” (priority 2023, published 2024).

What all share (format): physicochemical
The nature of series [1]: Viscosity, Brookfield DVI cone and plate viscometer. Particulars: 21.7° C.; neat MIL dried 48 hours under vacuum. The method, then: A Brookfield DVI cone and plate viscometer equipped with a CPA-51Z cone spindle was employed to obtain viscosity measurements at […] using approximately 0.5 g of each MIL after extensive drying for 48 hours under vacuum. Viscosity measurements were conducted at 21.7° C. for 15 lanthanide and transition metal MILs examined in this study.
Viscosity measurements were conducted at 21.7° C. for 15 lanthanide and transition metal MILs examined in this study.

Series [2] can be described thus: Thermal stability, MIL as GC stationary phase with FID. The following applies: exponential increase in response beyond 2,000 pA. The method, then: (§1) The thermal stability of MILs was measured from 40 to 350° C. at a ramp rate of 5° C. min^−1 by performing thermogravimetric analysis (TGA) using a NETZSCH STA 449 F1 Jupiter thermal analyzer (Selb, Germany). To further investigate the thermal stability of MILs using a more sensitive technique, the solvents were employed as a gas chromatographic (GC) stationary phase and subjected to an oven temperature program from 40 to 200° C. at a ramp rate of 1° C. min^−1 and decomposition/degradation products detected using an ultra-sensitive flame ionization detector (FID), with all measurements being performed on an Agilent Technologies 7890B gas chromatograph (Santa Clara, CA, USA).
To further investigate the thermal stability of MILs using a more sensitive technique, the solvents were employed as a gas chromatographic (GC) stationary phase and subjected to an oven temperature program from 40 to 200° C. at a ramp rate of 1° C. min^−1 and decomposition/degradation products detected using an ultra-sensitive flame ionization detector (FID).

Series [3] is described as follows: Effective magnetic moment from magnetic susceptibility balance (MSB). The following applies: per formula unit. The method, then:
Magnetic properties were analyzed using a magnetic susceptibility balance (MSB, Sherwood Scientific, Cambridge, UK) and a Quantum Design Superconducting Quantum Interference Device (SQUID) magnetometer (MPMS XL-7). The magnetic properties of transition metal MILs were further studied using a SQUID magnetometer to confirm their paramagnetic nature as well as if any magnetic transition occurs in the samples.
Magnetic susceptibility (XM) was calculated through Equation (1).
Effective magnetic moment (μeff) was calculated through Equation (2). In Equation (2), T represents the temperature at which the magnetic susceptibility measurements were conducted.
15 MILs incorporating rare-earth and transition metals were examined using a magnetic susceptibility balance (MSB).

Series [4] can be described thus: Solubility of MILs in organic solvents and water. An excerpt: The solubility of lanthanide and transition metal MILs was investigated in popular traditional organic solvents. […]
The solubility of lanthanide and transition metal MILs was investigated in popular traditional organic solvents.

The nature of series [5]: Thermal stability by thermogravimetric analysis (TGA). The following applies: TGA at 10% weight loss. The protocol: as §1
Volitization/degradation of MILs as a function of temperature were measured using thermogravimetric analysis. The thermal stability of magnetic ionic liquids was measured from 40 to 350° C. at a ramp rate of 5° C. min^−1 by performing thermogravimetric analysis (TGA) using a NETZSCH STA 449 F1 Jupiter thermal analyzer (Selb, Germany).
To investigate the ability of DGE-based MILs to withstand elevated temperatures without undergoing degradation/decomposition, their thermal stabilities were investigated using thermogravimetric analysis (TGA). FIG. 13 through FIG. 27 display thermograms for MILs 1 to 15. The thermogram results are summarized in greater detail in the following paragraphs.

The mark [6] stands for this setting: acetone, chloroform, dichloromethane, acetonitrile, methanol, ethanol, diethyl ether, ethyl acetate, isopropanol at 20% (w/v).
Where [7] appears, read: hexane, heptane, benzene, toluene at 10% (w/v).
Where [8] appears, read: hexane, heptane, benzene, toluene at 20% (w/v).
Setting [9] is: twelve organic solvents (without acetonitrile) at 50% (w/v).

Turning to `CCCCCCOC(=O)COCC(=O)OCCCCCC.CCCCCCOC(=O)COCC(=O)OCCCCCC.CCCCCCOC(=O)COCC(=O)OCCCCCC.CCCCCCOC(=O)COCC(=O)OCCCCCC.CCCCCCOC(=O)COCC(=O)OCCCCCC.CCCCCCOC(=O)COCC(=O)OCCCCCC.O=C(C=C([O-])C(F)(F)F)C(F)(F)F.O=C(C=C([O-])C(F)(F)F)C(F)(F)F.O=C(C=C([O-])C(F)(F)F)C(F)(F)F.O=C(C=C([O-])C(F)(F)F)C(F)(F)F.O=C(C=C([O-])C(F)(F)F)C(F)(F)F.O=C(C=C([O-])C(F)(F)F)C(F)(F)F.[Co+2].[Co+2].[Co+2]` [MIL 1], the “Viscosity (cP)” value in series [1] worked out at 175.0 cP.

With `CCCCCCCCOC(=O)COCC(=O)OCCCCCCCC.CCCCCCCCOC(=O)COCC(=O)OCCCCCCCC.CCCCCCCCOC(=O)COCC(=O)OCCCCCCCC.CCCCCCCCOC(=O)COCC(=O)OCCCCCCCC.CCCCCCCCOC(=O)COCC(=O)OCCCCCCCC.CCCCCCCCOC(=O)COCC(=O)OCCCCCCCC.O=C(C=C([O-])C(F)(F)F)C(F)(F)F.O=C(C=C([O-])C(F)(F)F)C(F)(F)F.O=C(C=C([O-])C(F)(F)F)C(F)(F)F.O=C(C=C([O-])C(F)(F)F)C(F)(F)F.O=C(C=C([O-])C(F)(F)F)C(F)(F)F.O=C(C=C([O-])C(F)(F)F)C(F)(F)F.O=C(C=C([O-])C(F)(F)F)C(F)(F)F.O=C(C=C([O-])C(F)(F)F)C(F)(F)F.[Co+2].[Gd+3].[Gd+3]` [MIL 14], the “Onset of MIL volatilization (° C.)^1” value in series [2] (listed as [Co(C8-DGE)6][Gd(hfacac)4]2) was “approximately 120 °C”.

For `CCCCCCCCOC(=O)COCC(=O)OCCCCCCCC.CCCCCCCCOC(=O)COCC(=O)OCCCCCCCC.CCCCCCCCOC(=O)COCC(=O)OCCCCCCCC.CCCCCCCCOC(=O)COCC(=O)OCCCCCCCC.CCCCCCCCOC(=O)COCC(=O)OCCCCCCCC.CCCCCCCCOC(=O)COCC(=O)OCCCCCCCC.O=C(C=C([O-])C(F)(F)F)C(F)(F)F.O=C(C=C([O-])C(F)(F)F)C(F)(F)F.O=C(C=C([O-])C(F)(F)F)C(F)(F)F.O=C(C=C([O-])C(F)(F)F)C(F)(F)F.O=C(C=C([O-])C(F)(F)F)C(F)(F)F.O=C(C=C([O-])C(F)(F)F)C(F)(F)F.O=C(C=C([O-])C(F)(F)F)C(F)(F)F.O=C(C=C([O-])C(F)(F)F)C(F)(F)F.[Co+2].[Ho+3].[Ho+3]` [MIL 15], the “Onset of MIL volatilization (° C.)^1” value in series [2] (listed as [Co(C8-DGE)6][Ho(hfacac)4]2) was “approximately 120 °C”.

Turning to `CCCCCCOC(=O)COCC(=O)OCCCCCC.CCCCCCOC(=O)COCC(=O)OCCCCCC.CCCCCCOC(=O)COCC(=O)OCCCCCC.CCCCCCOC(=O)COCC(=O)OCCCCCC.CCCCCCOC(=O)COCC(=O)OCCCCCC.CCCCCCOC(=O)COCC(=O)OCCCCCC.O=C(C=C([O-])C(F)(F)F)C(F)(F)F.O=C(C=C([O-])C(F)(F)F)C(F)(F)F.O=C(C=C([O-])C(F)(F)F)C(F)(F)F.O=C(C=C([O-])C(F)(F)F)C(F)(F)F.O=C(C=C([O-])C(F)(F)F)C(F)(F)F.O=C(C=C([O-])C(F)(F)F)C(F)(F)F.[Ni+2].[Ni+2].[Ni+2]` [compound 2], the “μeff, effective magnetic moment” value in series [3] is 5.48 μB. The Solubility result in series [4] (setting [6]) is “S^b (soluble in acetone, chloroform, dichloromethane, acetonitrile, methanol, ethanol, diethyl ether, ethyl acetate, and isopropanol at 20% (w/v).)”; in series [4] (acetonitrile at 50% (w/v)), “S^e (insoluble in acetonitrile at 50% (w/v).)”; in series [4] (setting [7]), “S^a (soluble in hexane, heptane, benzene, and toluene at 10% (w/v).)”; in series [4] (setting [8]), “S^c (soluble in hexane, heptane, benzene, and toluene at 20% (w/v).)”; in series [4] (setting [9]) it was “S^d (soluble in acetone, chloroform, dichloromethane, methanol, ethanol, diethyl ether, ethyl acetate, isopropanol hexane, heptane, benzene, and toluene at 50% (w/v).)”; in series [4] (water at 0.01% (w/v)) it was “S^f (insoluble in water at 0.01% (w/v).)”. Also, the “Onset of MIL volatilization (° C.)^2” value in series [5] is 257.0 °C. Also, in series [2], the “Onset of MIL volatilization (° C.)^1” value was 166 °C. The “Viscosity (cP)” value in series [1] is reported as 248.6 cP.

As for `CCCCCCOC(=O)COCC(=O)OCCCCCC.CCCCCCOC(=O)COCC(=O)OCCCCCC.CCCCCCOC(=O)COCC(=O)OCCCCCC.CCCCCCOC(=O)COCC(=O)OCCCCCC.CCCCCCOC(=O)COCC(=O)OCCCCCC.CCCCCCOC(=O)COCC(=O)OCCCCCC.O=C(C=C([O-])C(F)(F)F)C(F)(F)F.O=C(C=C([O-])C(F)(F)F)C(F)(F)F.O=C(C=C([O-])C(F)(F)F)C(F)(F)F.O=C(C=C([O-])C(F)(F)F)C(F)(F)F.O=C(C=C([O-])C(F)(F)F)C(F)(F)F.O=C(C=C([O-])C(F)(F)F)C(F)(F)F.[Mn+2].[Mn+2].[Mn+2]` [compound 3], in series [3], the “μeff, effective magnetic moment” value worked out at 10.42 μB. Also, the Solubility result in series [4] (setting [6]) is “S^b (soluble in acetone, chloroform, dichloromethane, acetonitrile, methanol, ethanol, diethyl ether, ethyl acetate, and isopropanol at 20% (w/v).)”; in series [4] (acetonitrile at 50% (w/v)), “S^e (insoluble in acetonitrile at 50% (w/v).)”; in series [4] (setting [7]), “S^a (soluble in hexane, heptane, benzene, and toluene at 10% (w/v).)”; in series [4] (setting [8]) it was “S^c (soluble in hexane, heptane, benzene, and toluene at 20% (w/v).)”; in series [4] (setting [9]) it was “S^d (soluble in acetone, chloroform, dichloromethane, methanol, ethanol, diethyl ether, ethyl acetate, isopropanol hexane, heptane, benzene, and toluene at 50% (w/v).)”; in series [4] (water at 0.01% (w/v)), “S^f (insoluble in water at 0.01% (w/v).)”. Further, in series [5], the “Onset of MIL volatilization (° C.)^2” value came out at 256.8 °C. The “Onset of MIL volatilization (° C.)^1” value in series [2] was 168 °C. Also, the “Viscosity (cP)” value in series [1] is recorded as 63.2 cP.

Consider `CCCCCCCCOC(=O)COCC(=O)OCCCCCCCC.CCCCCCCCOC(=O)COCC(=O)OCCCCCCCC.CCCCCCCCOC(=O)COCC(=O)OCCCCCCCC.CCCCCCCCOC(=O)COCC(=O)OCCCCCCCC.CCCCCCCCOC(=O)COCC(=O)OCCCCCCCC.CCCCCCCCOC(=O)COCC(=O)OCCCCCCCC.O=C(C=C([O-])C(F)(F)F)C(F)(F)F.O=C(C=C([O-])C(F)(F)F)C(F)(F)F.O=C(C=C([O-])C(F)(F)F)C(F)(F)F.O=C(C=C([O-])C(F)(F)F)C(F)(F)F.O=C(C=C([O-])C(F)(F)F)C(F)(F)F.O=C(C=C([O-])C(F)(F)F)C(F)(F)F.[Co+2].[Co+2].[Co+2]` [compound 4], for which the “μeff, effective magnetic moment” value in series [3] is given as 8.57 μB. The Solubility result in series [4] (setting [6]) is “S^b (soluble in acetone, chloroform, dichloromethane, acetonitrile, methanol, ethanol, diethyl ether, ethyl acetate, and isopropanol at 20% (w/v).)”; in series [4] (setting [7]), “S^a (soluble in hexane, heptane, benzene, and toluene at 10% (w/v).)”; in series [4] (setting [8]), “S^c (soluble in hexane, heptane, benzene, and toluene at 20% (w/v).)”; in series [4] (setting [9]) it was “S^d (soluble in acetone, chloroform, dichloromethane, methanol, ethanol, diethyl ether, ethyl acetate, isopropanol hexane, heptane, benzene, and toluene at 50% (w/v).)”; in series [4] (water at 0.01% (w/v)), “S^f (insoluble in water at 0.01% (w/v).)”. In series [5], the “Onset of MIL volatilization (° C.)^2” value was 262.9 °C. Moreover, the “Onset of MIL volatilization (° C.)^1” value in series [2] came out at 185 °C. For the same molecule, the “Viscosity (cP)” value in series [1] was 31.6 cP.
